# Test results as given in ChEMBL document CHEMBL1157539, “Thousands of chemical starting points for antimalarial lead identification” (Nature, 2010).
# System: Plasmodium falciparum
# Experiment: GSK_TCMDC: Inhibition of Plasmodium falciparum 3D7 in whole erythrocytes, using parasite LDH activity as an index of growth.
# Type: functional, organism-based
# Conditions: Plasmodium falciparum, 3D7
row,SMILES,XC50
1,O=[N+]([O-])c1ccccc1/C=N/Nc1ccnc2ccc(C(F)(F)F)cc12,710 nM
2,CCN(CC)CCN(Cc1ccc(-c2ccc(C(F)(F)F)cc2)cc1)C(=O)Cn1c(CCc2cccc(F)c2F)cc(=O)c(C)c1C,624 nM
3,CCC[C@@H]([C@@H](CC(C)C)C(=O)N[C@@H](CCC/N=C(/N)NS(C)(=O)=O)C(=O)Nc1nccs1)N(O)C=O,941 nM
4,CCNc1cc(C(=O)N[C@@H](Cc2ccccc2)[C@H](O)CNC(C)CCCC(C)C)cc(N2CCCS2(=O)=O)c1 (some centres not stated),219 nM
5,FC(F)(F)c1cccc(C=NNc2nc3ccccc3[nH]2)c1,148 nM
6,COc1cc2nc(-c3ccccc3)nc(N3CCN(CC(=O)N4CCCC4)CC3)c2cc1OC,1130 nM
7,CCC(C(=O)Nc1ccccc1)n1nc(-c2ccc(C)c(S(=O)(=O)N3CCCCC3)c2)ccc1=O (configuration not stated),1090 nM
8,CCc1ccccc1OCCCON1C(=N)N=C(N)NC1(C)C,3.2 nM
9,COc1cc(N(C)Cc2cnc3nc(N)nc(N)c3n2)cc(OC)c1OC,435 nM
10,CN(C)CCN(Cc1ccccc1-c1ccc(CNCCc2ccccc2)cc1)C(=O)c1ccccc1,1700 nM
11,COc1ccc2nccc([C@@H](O)CN3CCC(NCc4nc5c(F)cccc5[nH]4)CC3)c2c1,467 nM
12,COc1cc(CNc2ccc(N3CCCC3)cc2)cc(Cl)c1OC,700 nM
13,N=C(N)NC(=O)Nc1ccc(Cl)c(C(F)(F)F)c1,594 nM
14,CC1(C)N=C(N)N=C(N)N1c1ccc2ccccc2c1,53.8 nM
15,Cc1noc(C)c1-c1cccc(C(=O)NC2CCN(CCNC(=O)C(c3ccccc3)c3ccccc3)CC2)c1,1220 nM
16,CSCCC(C(=O)O)N1C(=O)c2ccccc2C1=O (configuration not stated),1030 nM
17,CCNc1cc(C(=O)NC(Cc2ccccc2)C(O)CNC(C)(C)CCCC(C)C)c(F)c(N2CCCS2(=O)=O)c1 (configuration not stated),197 nM
18,COc1ccc2[nH]c(C)cc(=NN=Cc3ccc(F)cc3)c2c1,191 nM
19,COc1cc(C(=O)NC2CC(C)(C)NC(C)(C)C2)ccc1-c1cc2cc(Cl)c(Cl)cc2[nH]1,724 nM
20,FC(F)(F)c1cccc(Nc2nc3ccccc3nc2Nc2cccc(C(F)(F)F)c2)c1,137 nM
21,CSc1ccc(CN2CCC(NC(=O)c3ccc(-c4cccc(Cl)c4)s3)CC2)cc1,1290 nM
22,O=C(NCCCCN1CCC(c2c[nH]c3ccc(-c4ccccc4)cc23)CC1)c1ccc(-c2ccccc2)cc1,985 nM
23,COc1cc(Cc2cnc(N)nc2N)cc(OCCCCc2nnn[nH]2)c1OC,286 nM
24,N#Cc1cccc(-c2cnc(N)c(-c3nc4cc(S(N)(=O)=O)ccc4[nH]3)c2)c1,644 nM
25,CCOc1cc(C(=O)NCc2cccc(C(F)(F)F)c2)ccc1-c1nc2cc(Cl)ccc2[nH]1,977 nM

row,SMILES,XC50
1,O=C(CC(c1ccccc1)c1ccccc1O)N1CCOCC1 (configuration not stated),1520 nM
2,CNCCNC(=O)C1Cc2c([nH]c3c(C)cccc23)C(c2ccc(Cl)c(Cl)c2)N1 (configuration not stated),716 nM
3,CCCCCCn1c2c(c(=N)c3c1CCC3)CCC2,178 nM
4,CSc1nnc2n(Cc3ccccc3)c(=O)c3c(n12)-c1ccccc1CC31CCCCC1,969 nM
5,O=C(/C=C/c1ccc(Cl)c(Cl)c1)NCCCCCN1CCC(NC(=O)Nc2cccc(Cl)c2)CC1,754 nM
6,Cc1c(Cc2ccccc2)c(=O)oc2c(C)c3c(cc12)CN(CC(C)c1ccccc1)CO3 (configuration not stated),454 nM
7,CC(=O)Nc1cccc(C(=O)Nc2cccc(-c3ccc(-c4nc5cccc(C)c5[nH]4)s3)c2)c1,767 nM
8,COc1cc2cc(-c3nc4ccccc4[nH]3)c(N)nc2cc1OC,168 nM
9,COc1ccc2nccc([C@@H](O)CN3CCC(NCc4cc5cccc6c5n(c4=O)CCC6)CC3)c2c1,861 nM
10,CCCCCn1c(Sc2ccc(C#N)c([N+](=O)[O-])c2)nnc1-c1ccc(OC)cc1,1140 nM
11,CC1(C)S(=O)(=O)CC(O)CS1(=O)=O,467 nM
12,Cc1ccc(-c2csc(C)n2)c(C)c1,991 nM
13,OC1(c2ccc(Br)cc2)CCN(C2CCN(Cc3ccccc3)CC2)CC1,597 nM
14,Cc1ccc(CN2CCCN(Cc3ccc(C(=O)Nc4ccc(Cl)cc4)cc3)CC2)s1,1110 nM
15,O=C(/C=C/c1ccc(Cl)c(Cl)c1)N1CCC(CN2CCC(c3c[nH]c4ncccc34)CC2)CC1,1090 nM
16,CC[C@H]1CN2CC[C@H]1C[C@H]2[C@H](O)c1cc(-c2ccccc2C)nc2ccc(OC)cc12,195 nM
17,O=C(Nc1cccc([N+](=O)[O-])c1)Nc1ccc(Cl)c(C(F)(F)F)c1,1120 nM
18,Cc1cc(-c2ccc3c(c2)CCN(CCCOc2ccc4c(c2)CCN4C(=O)/C=C/c2ccccc2Cl)CC3)no1,1230 nM
19,CCc1c(C(=O)NC2CCC(N3CCC(c4ccccc4C)CC3)CC2)[nH]c2ccc(OC)cc12 (configuration not stated),808 nM
20,CC(CN(C)C)C(=O)Nc1ccc(-c2ccc(-c3nc4ccccc4[nH]3)s2)cc1 (configuration not stated),717 nM
21,c1ccc(C23NC(=Nc4nc5ccccc5[nH]4)NC2(c2ccccc2)NC(=Nc2nc4ccccc4[nH]2)N3)cc1 (configuration not stated),276 nM
22,COc1ccc(-c2cc(C(=O)N[C@@H](CC3CCCCC3)C(=O)NCCN3CCCC3)ccc2O)cc1,868 nM
23,Cc1cnc(C(=O)Nc2ccc3c(c2)CCCN(Cc2c[nH]c4cnccc24)C3)cn1,1230 nM
24,CCCCNC(c1ccc(Cl)cc1)C(O)c1ccc(Cl)cc1 (configuration not stated),619 nM
25,Cc1cc(NC(=O)Nc2ccc3nc(C)oc3c2)c2cc(Cl)ccc2n1,1120 nM

row,SMILES,XC50
1,COc1cc2c(c(Cl)c1OC)CCN(Cc1ccccc1)CC2c1ccc(C(N)=O)cc1 (configuration not stated),848 nM
2,COc1ccc(-c2ccc(S(=O)(=O)Nc3cc4c(cc3OC(C)C)CCNCC4)cc2)cc1,969 nM
3,Nc1c2c(nc3ccc(C(=O)Nc4ccccc4)cc13)CCCC2,714 nM
4,COc1ccc(C(=O)c2ccc3[nH]cc(C4=CCN(C)CC4)c3c2)cc1,1050 nM
5,CC(Cc1ccc(OCCCCOc2ccccc2)cc1)NCCCc1nc2ccccc2[nH]1 (configuration not stated),981 nM
6,N#Cc1ccc2c(c1)CCN(CCC1CCC(NC(=O)Nc3ccnc4ccccc34)CC1)C2 (configuration not stated),377 nM
7,O=C(Nc1cc(F)cc(F)c1)NC1CCN(CCCCCNC(=O)C2CC2c2ccc(Cl)c(Cl)c2)CC1 (configuration not stated),750 nM
8,CCCCN(CCCC)/C(=N/C(=N)Nc1ccc(Cl)cc1)NCCCCCCN/C(=N\C(=N)Nc1ccc(Cl)cc1)N(CCCC)CCCC,791 nM
9,Cc1ccc(CNC(=O)[C@H](CCCN)Nc2nc(NCC3CCCCC3)ncc2C)cc1,987 nM
10,CC1CCN(c2nc(C(=O)NCCc3ccc(Cl)c(Cl)c3)c(C(C)C)s2)CC1,1930 nM
11,COc1ccc2ncc(F)c(CCN3CC[C@H](NC(=O)c4ccc5c(n4)NC(=O)CS5)[C@H](O)C3)c2n1,947 nM
12,COc1ccccc1-c1ccc2nnc(SCC(=O)Nc3ccc4c(c3)OCCO4)n2n1,716 nM
13,O=S(=O)(NCCN1CCCC1)c1cccc(-c2cccc(CNCCc3cccs3)c2)c1,753 nM
14,Cc1cc(OCCCN2CCC(NS(=O)(=O)c3ccc(C(F)(F)F)cc3)CC2)c2ccccc2n1,1220 nM
15,Cc1cc(OCCCN2CCCCC2C)ccc1NC(=O)COc1ccc(Cl)cc1C(=O)c1cc(Cl)cc(C#N)c1 (configuration not stated),981 nM
16,COc1ccc(Nc2nccc(N3CCC(NC(=O)Nc4ccc5c(c4)OCO5)C3)n2)cc1 (configuration not stated),599 nM
17,COc1ccc(CNCc2ccc(F)cc2)cc1-c1ccc(S(=O)(=O)NCCN2CCCC2)cc1,1040 nM
18,CCOc1cc(C(=O)NCCN2CCCCC2)ccc1-c1nc2cc(Cl)ccc2[nH]1,1080 nM
19,COc1cc(C=CC(=O)N2CCC(CN3CCC(c4c[nH]c5ccccc45)CC3)CC2)cc(OC)c1,804 nM
20,COC(=O)c1ccc(CCC(C)NCC(O)c2cccc(Cl)c2)cc1 (configuration not stated),670 nM
21,FC(F)(F)c1ccc2[nH]c(-c3ccc(-c4ccc(CN5CCN(c6ccncc6)CC5)cc4)s3)nc2c1,153 nM
22,CC(C)(C)c1ccc(NC(=O)c2ccc(CN3CCCN(Cc4cccc(F)c4)CC3)cc2)cc1,1120 nM
23,CCS(=O)(=O)Nc1ccc2[nH]cc(C3CCN(CCC4CCN(C(=O)/C=C/c5ccc(Cl)c(Cl)c5)CC4)CC3)c2c1,534 nM
24,Cc1ccc(C(=O)Nc2ccc(C)c(OC3CCN(CCC(C)C)C3)c2)cc1 (configuration not stated),793 nM
25,COc1cccc(CNC[C@@H](O)[C@H](Cc2ccccc2)NC(=O)c2cc(N3CCCC3=O)c3[nH]cc(C(C)C)c3c2)c1,529 nM

row,SMILES,XC50
1,O=C(NC1CCC(CCN2Cc3cccc(F)c3C2)CC1)c1cccc(-c2cccnc2)c1 (configuration not stated),300 nM
2,CCN(CC)CCNc1ccnc2c3ccccc3n(C)c12,238 nM
3,CCCCN1CCN(CCCNc2c3ccccc3nc3ccccc23)CC1,512 nM
4,CCCCOc1cc(OC)c2ccccc2c1CCNCCCCNCCc1c(OCCCC)cc(OC)c2ccccc12,1050 nM
5,COc1ccc2[nH]cc(C3CCN(CCCCCNC(=O)c4ccc(-c5ccccc5)cc4)CC3)c2c1,795 nM
6,CN(C)c1ccc(-c2nc3cc(N)ccc3[nH]2)cc1,239 nM
7,O=C(/C=C/c1ccc(Cl)c(Cl)c1)NCC1CCC(CN2CCC(c3c[nH]c4ccccc34)CC2)CC1 (configuration not stated),356 nM
8,Cc1csc(-c2nc(NCCc3c(C)noc3C)ncc2-c2ccsc2)n1,177 nM
9,COc1ccc(C(=O)C2CC2CN2CC=C(c3c[nH]c4ccccc34)CC2)cc1 (configuration not stated),532 nM
10,Cc1c(Cn2ncc(N3CC(C)NC(C)C3)c(Cl)c2=O)cccc1NC(=O)Nc1ccc(-c2ccccc2)cc1 (configuration not stated),596 nM
11,COc1cccc(-c2nn(C)c3sc(C(=O)NCCN4CCN(c5ccccc5F)CC4)cc23)c1,955 nM
12,CN1CCC(NCc2ccc(-c3ccc(S(=O)(=O)NCc4ccccc4)c(F)c3)cc2)CC1,611 nM
13,COc1cc(-c2nc(-c3ccccc3)c(-c3ccccc3)[nH]2)cc(OC)c1O,774 nM
14,CCCCCCc1ncc(-c2cc3cc(O)c(-c4ccccc4)cc3oc2=O)s1,1240 nM
15,COc1cccc(NC(=O)NC2CCN(c3ccnc(Nc4cc(OC)c(OC)c(OC)c4)n3)C2)c1 (configuration not stated),856 nM
16,CN(C)CCN(C)Cc1ccc(-c2cccc(-c3nc4ccccc4[nH]3)c2)cc1,751 nM
17,Cc1ccc(CN2CCC(C(=O)Nc3ccc(-c4cc5ccccc5[nH]4)cc3)CC2)o1,1420 nM
18,CCCOc1ccc(OCCCON2C(=N)N=C(N)NC2(C)C)cc1,3.2 nM
19,COc1ccc(C2C(C(=O)Nc3ccccc3)=C(C)Nc3c(C(=O)Nc4ccccc4)cnn32)cc1 (configuration not stated),1310 nM
20,N#Cc1ccccc1S(=O)(=O)N1CCCC(CNC(=O)[C@H](CC2CCCCC2)NC(=O)c2cc3ccccc3s2)C1 (some centres not stated),515 nM
21,CS(=O)(=O)N(CC(O)Cn1c2ccc(Cl)cc2c2cc(Cl)ccc21)c1ccccc1 (configuration not stated),897 nM
22,CN1CCCC(CN2CCN(Cc3cccc(-c4csc(-c5nc6ccccc6[nH]5)c4)c3)CC2)C1 (configuration not stated),414 nM
